Converted amounts (≈) assume the structure as drawn. The source made the active and inactive calls. No cut-off for these calls is given here.
Columns and labels:
Staphylococcus aureus = experiment: Antimicrobial activity against Staphylococcus aureus after 18 hrs by serial twofold dilution test; format: functional
[1] = target: T1, Quinolone resistance protein NorA (Staphylococcus aureus) (UniProt P0A0J7); experiment: Inhibition of NorA MDR efflux pump in Staphylococcus aureus assessed as increase in antimicrobial activity of erythromycin at 10 ug/ml after 18 hrs by twofold serial dilution method
T1 sequence (whole entry): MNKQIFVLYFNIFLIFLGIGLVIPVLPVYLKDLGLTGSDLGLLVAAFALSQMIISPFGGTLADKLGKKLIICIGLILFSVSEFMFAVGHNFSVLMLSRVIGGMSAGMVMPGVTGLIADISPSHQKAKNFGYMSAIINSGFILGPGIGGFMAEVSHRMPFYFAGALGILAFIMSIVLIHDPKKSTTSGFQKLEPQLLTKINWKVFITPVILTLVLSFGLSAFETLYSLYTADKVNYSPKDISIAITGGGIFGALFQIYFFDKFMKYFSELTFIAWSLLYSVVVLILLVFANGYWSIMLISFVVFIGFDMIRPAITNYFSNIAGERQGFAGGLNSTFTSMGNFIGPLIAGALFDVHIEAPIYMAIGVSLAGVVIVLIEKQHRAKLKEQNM

Bacillus cereus = experiment: Inhibition of NorA MDR efflux pump in Bacillus cereus assessed as fold increase in antimicrobial activity of berberine at 10 ug/ml after 24 hrs by twofold serial dilution method
[2] = target: T1, Quinolone resistance protein NorA (Staphylococcus aureus); experiment: Inhibition of NorA MDR efflux pump in Staphylococcus aureus assessed as increase in antimicrobial activity of berberine at 10 ug/ml after 18 hrs by twofold serial dilution method
[3] = target: T1, Quinolone resistance protein NorA (Staphylococcus aureus); experiment: Inhibition of NorA MDR efflux pump in Staphylococcus aureus assessed as increase in antimicrobial activity of tetracycline at 10 ug/ml after 18 hrs by twofold serial dilution method

SMILES: C=CC(C)(C)c1cc(C2COc3c(CC=C(C)C)c(O)cc(O)c3C2=O)c(O)cc1O (stereo not drawn) [DALVERSINOL A]
- MIC (Staphylococcus aureus): 31.3 µg/mL (≈ 73.7 µM)

SMILES: COc1ccc(/C=C/c2cc(OC)cc(OC)c2)cc1 [TRISMETHOXYRESVERATROL]
- MIC (Staphylococcus aureus): 500 µg/mL (≈ 1850 µM)

SMILES: COc1c(C)c(O)c(C)c(O)c1C(=O)/C=C/c1ccccc1
- Activity [1]: Active
- MIC (Staphylococcus aureus): 250 µg/mL (≈ 838 µM)
- fold change (FC) (Bacillus cereus): 30
- Activity [2]: Active
- Activity [3]: Active

SMILES: C=CC(C)(C)c1cc([C@@H]2CC(=O)c3c(O)cc(O)c(CC=C(C)C)c3O2)c(O)cc1O
- MIC (Staphylococcus aureus): 7.8 µg/mL (≈ 18.4 µM)

Reference: ChEMBL document CHEMBL1146518, “Phenolic metabolites of Dalea versicolor that enhance antibiotic activity against model pathogenic bacteria” (2004)
